The text below walks through data of US5215979A, “16,17-acetalsubstituted pregnane 21-oic acid derivatives” (priority 1985, dated 1993).

Molecules are shown by their SMILES. Where “and” joins values, the source holds several entries; their conditions need not be identical. Equal entries are not always repeated. Where two headings read alike, the source gives them in different places. A value given as a limit tells only on which side of the number the result lay.

As usually defined, the ED50 is the dose at which the effect has come halfway, by size or by number of responders.

The conditions of data set [1]: in vivo; cited from earlier work.
For data set [2], the system named is thymus. Put plainly: Thymus weight recorded in the Sephadex model (systemic effect). In kind it is in vivo, Sprague-Dawley rats. The following applies: for Thymus involution % (dose mg/kg): relative to Sephadex control group. The method, then: (§1) The differentiation between glucocorticosteroid action in the treated lung region and outside this area has been tested by the following test protocol. Sprague-Dawley rats (225 g) were slightly anesthetized with ether and the glucocorticosteroid test preparation in a volume of 0.5 ml/kg was instilled into just the left lung lobe. […] Thirty minutes later, a suspension of Sephadex (5 mg/kg in a volume of 1 ml/kg) was instilled in the trachea well above the bifurcation so that the suspension reached both the left and right lung lobes. Twenty hours later the rats were killed and the left and right lung lobes were dissected out and weighed separately. Also the thymus weight was recorded. Control groups got vehicle instead of glucocorticosteroid preparation and saline instead of Sephadex suspension to determine the weight of non-drug protected Sephadex edema and the normal lung weight, respectively. For each glucocorticosteroid preparation at least 3 doses within the range 0.01-10 mg/kg and with each ≥6 parallels/dose were tested. The glucocorticosteroids were suspended in a vehicle of CMC-Na 0.75%, Tween 80 0.04%, and 0.7% NaCl ad 100%.

For data set [3] the following is noted: cited from earlier work; for Unwanted GCS actions within the general circulation (in words): highest of the recommended doses for inhalation; for Safety margin (in words): inhaled GCS, highest recommended doses for inhalation.
Data set [4] relates to interstitial lung edema. The data set is described as follows: Sephadex model in the rat: lung edema after Sephadex bead instillation, glucocorticosteroid instilled in left lung lobe. It is filed as in vivo, Sprague-Dawley rats. The following applies: for ED50: Rattus norvegicus, read-out: ED50 left lung lobe (required glucocorticosteroid dose to reduce the edema by 50%); for Selectivity ratio ED50 right lung / ED50 left lung: instillation into left lung lobe, higher = more selective for application site.
Excerpt: The selectivity for anti-inflammatory effect at the application site in the lung has been investigated in a model system in the rat after intrabronchial instillation of the glucocorticosteroid.
Instillation of Sephadex beads into rat lung leads to bronchial and alveolar inflammation. This provokes interstitial lung edema, which increases the lung weight and the inflammation can be graded as the increase of the lung weight compared to a vehicle-instilled control group. The lung edema formation can be counteracted by pretreatment with glucocorticosteroids, preferably the local administration as intrabronchial installation or as inhalation. Ideally, an anti-inflammatory action should be obtained only at the site of glucocorticosteroid application in the lung but not outside this area, as this in long term treatment can lead to therapy limiting systemic side effects.
as §1
For a strict local anti-inflammatory treatment of airway diseases the ideal profile of a compound is that it should counteract the inflammation in the locally treated left lung lobe, but not in the right lung half, which is anticipated to be reached by glucocorticosteroid first via the systemic circulation (after absorption from the left lung). The ratio between the required ED50 's (doses reducing the edema by 50%) in the right and left lung halves, respectively, can be used as a parameter for estimation of the selective activity for the application site. For an ideal glucocorticosteroid this selectivity ratio should be high.

For data set [5] the following is noted: cited from earlier work; for Plasma half life: after absorption of inhaled GCS; for Site of inactivation (in words): after absorption.
For data set [6] the following is noted: compared with budesonide or BDP; cited from earlier work.
Where [7] appears, read: intrabronchial instillation into left lung lobe 30 min before Sephadex, lungs weighed 20 h later.

As to `CCCC1O[C@@H]2C[C@H]3[C@@H]4CCC5=CC(=O)C=C[C@]5(C)[C@H]4[C@@H](O)C[C@]3(C)[C@]2(C(=O)CO)O1` (some centres unmarked) [Budesonide], the “Selectivity for the application within airways (in words)” value in data set [1] is “low selectivity”. The “Thymus involution % (dose mg/kg)” value in data set [2] (dose 0.3 mg/kg) stood at 22%. In data set [3], the “Unwanted GCS actions within the general circulation (in words)” value is “unwanted GCS actions within the general circulation have been reported” and the “Safety margin (in words)” value was “rather narrow safety margin”. The ED50 in data set [4] (setting [7]) was 0.2 mg/kg. For the same compound, the “Selectivity for activity in the locally treated left lung lobe (in words)” value in data set [4] (compared with budesonide and FCB) was “does not reach any selectivity for the application site in lung”. The “Selectivity ratio ED50 right lung / ED50 left lung” value in data set [4] was ~ 1.5 and 1.4. Further, in data set [5], the Plasma half life is on record as at least 2 h and the “Site of inactivation (in words)” value was “inactivated mainly in the liver”.

For the compound `CCC[C@@H]1O[C@@H]2C[C@H]3[C@@H]4C[C@H](F)C5=CC(=O)C=C[C@]5(C)[C@@]4(F)[C@@H](O)C[C@]3(C)[C@]2(C(=O)C(=O)OC)O1` [Example 1, methyl (22R)-16α,17α-butylidenedioxy-6α, 9α-difluoro-11β-hydroxy-3,20-dioxopregna-1,4-diene-21-oate], in data set [2] (dose 10 mg/kg), the “Effect on thymus weight (in words)” value is “do not at all affect the thymus weight” and the “Thymus involution % (dose mg/kg)” value is on record as -3%. In data set [4] (setting [7]), the ED50 came to 1.5 mg/kg. Besides, the “Selectivity ratio ED50 right lung / ED50 left lung” value in data set [4] was found to be 6.0.

`CCC[C@@H]1O[C@@H]2C[C@H]3[C@@H]4C[C@H](F)C5=CC(=O)C=C[C@]5(C)[C@@]4(F)[C@@H](O)C[C@]3(C)[C@]2(C(=O)C(=O)OCC)O1` [Example 3, ethyl (22R)-16α,17α-butylidenedioxy-6α,9α-difluoro-11β-hydroxy-3, 20-dioxopregna-1,4-diene-21-oate]: the “Thymus involution % (dose mg/kg)” value in data set [2] (dose 10 mg/kg) was 15%. Also, the ED50 in data set [4] (setting [7]) was found to be 1.7 mg/kg. Besides, the “Selectivity ratio ED50 right lung / ED50 left lung” value in data set [4] is listed as 5.9.

On to `CCCOC(=O)C(=O)[C@@]12O[C@H](CCC)O[C@@H]1C[C@H]1[C@@H]3C[C@H](F)C4=CC(=O)C=C[C@]4(C)[C@@]3(F)[C@@H](O)C[C@@]12C` [Example 4, n-propyl (22R)-16α,17α-butylidenedioxy-6α,9α-difluoro-11β-hydroxy-3, 20-dioxopregna-1,4-diene-21-oate], for which the “Thymus involution % (dose mg/kg)” value in data set [2] (dose 10 mg/kg) worked out at 6%. Moreover, the ED50 in data set [4] (setting [7]) is below 1 mg/kg. Further, in data set [4], the “Selectivity ratio ED50 right lung / ED50 left lung” value is listed as above 10.

As to `CCC[C@@H]1O[C@@H]2C[C@H]3[C@@H]4C[C@H](F)C5=CC(=O)C=C[C@]5(C)[C@@]4(F)[C@@H](O)C[C@]3(C)[C@]2(C(=O)C(=O)OC(C)C)O1` [Example 5, isopropyl (22R)-16α,17α-butylidenedioxy-6α,9α-difluoro-11β-hydroxy-3, 20-dioxopregna-1,4-diene-21-oate], in data set [2] (dose 10 mg/kg), the “Effect on thymus weight (in words)” value is given as “do not at all affect the thymus weight” and the “Thymus involution % (dose mg/kg)” value is on record as -1%. Besides, the ED50 in data set [4] (setting [7]) turned out to be 5 mg/kg. In addition, the “Selectivity ratio ED50 right lung / ED50 left lung” value in data set [4] stood at 10.0.

As to `CCCCOC(=O)C(=O)[C@H]1[C@H](C)C[C@H]2[C@@H]3C[C@H](F)C4=CC(=O)C=C[C@]4(C)[C@H]3[C@@H](O)C[C@@]21C` [FCB, fluocortin butyl ester], the “Potency (in words)” value in data set [6] is “lower potency”. Besides, the “Thymus involution % (dose mg/kg)” value in data set [2] (dose 10 mg/kg) stood at 6%. Also, the ED50 in data set [4] (20 h) was 10 mg/kg. Also, the “Selectivity ratio ED50 right lung / ED50 left lung” value in data set [4] was 2-3 and 2.5. Besides, the “Half life time in plasma (in words)” value in data set [5] (compared with budesonide) is “as long half life time in plasma as budesonide”.

For the compound `CCC(=O)OCC(=O)[C@@]1(OC(=O)CC)[C@@H](C)C[C@H]2[C@@H]3CCC4=CC(=O)C=C[C@]4(C)[C@@]3(Cl)[C@@H](O)C[C@@]21C` [beclomethasone 17α, 21-dipropionate], in data set [3], the “Unwanted GCS actions within the general circulation (in words)” value is “unwanted GCS actions within the general circulation have been reported” and the “Safety margin (in words)” value is “rather narrow safety margin”. In data set [5], the Plasma half life is at least 2 h and the “Site of inactivation (in words)” value is “inactivated mainly in the liver”.
